# Experiments:
# [1] = Amino-carbonyl reaction with polypeptone; format: physicochemical; conditions: with 5% (w/v) polypeptone, 120° C., blank subtracted
# Description: ICG5 used in Experiment 15 and commercially available polypeptone, commercialized by Nihon Pharmaceutical Co., Ltd., Tokyo, Japan, were dissolved in deionized water to make into an aqueous solution containing […] and 5% (w/v) of polypeptone. As a control, an aqueous solution containing α-CD and polypeptone was prepared in the same manner using α-CD in place of ICG5. Four milliliters each of the solution was put in a glass tube, sealed and then heated at 120° C. for 30, 60, or 90 min. After cooling the solutions in ambient temperature, the degrees of coloring of the solutions were measured to estimate the degree of amino-carbonyl reaction. As a blank test, a solution containing polypeptone only was heated in the same manner. The degree of coloring was defined as an absorbance at 480 nm using a 1 cm-cell after subtracting the absorbance of the blank test.
# [2] = Thermal stability of ICM (ICG5 aqueous solution heated at 120° C.); format: physicochemical; conditions: for Degree of coloring / Purity: 5% (w/v) aqueous solution, 120° C.; for Purity: HPLC
# Description: (§1) ICG5, prepared from soluble starch by the method in Experiment 11 and purified to give a purity of 100% by the method in Experiment 1, was used as material. An aqueous ICG5 solution with a concentration of 5% (w/v) was prepared by dissolving ICG5 in deionized water. Then, 8 ml each of the resulting solution was pored into a glass tube, sealed closely, and then heated at 120° C. for 30 to 90 min. After cooling the solution, the degree of coloring of the solution was measured. Further, the purity of ICG5 in the solution was measured by HPLC. The degree of coloring was defined as an absorbance at 480 nm using a 1 cm-cell.
# salivary α-amylase = target: T1, salivary α-amylase (Homo sapiens, UniProt P0DUB6)
# T1 sequence (P0DUB6 16-511): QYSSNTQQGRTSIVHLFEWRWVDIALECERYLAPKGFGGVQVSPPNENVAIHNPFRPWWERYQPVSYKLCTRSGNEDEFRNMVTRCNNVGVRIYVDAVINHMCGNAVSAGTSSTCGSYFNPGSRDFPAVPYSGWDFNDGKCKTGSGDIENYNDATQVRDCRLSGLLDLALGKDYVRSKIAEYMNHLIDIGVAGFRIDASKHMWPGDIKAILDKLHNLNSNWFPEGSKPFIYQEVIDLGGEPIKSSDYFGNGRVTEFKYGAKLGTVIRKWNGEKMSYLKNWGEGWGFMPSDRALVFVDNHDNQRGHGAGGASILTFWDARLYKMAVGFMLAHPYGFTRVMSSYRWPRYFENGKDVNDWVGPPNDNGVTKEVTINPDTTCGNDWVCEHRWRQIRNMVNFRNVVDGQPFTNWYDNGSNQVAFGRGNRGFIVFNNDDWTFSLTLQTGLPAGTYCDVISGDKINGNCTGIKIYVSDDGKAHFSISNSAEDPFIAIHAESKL
# Source text: 43, 23-29 (1990), the digestibility of ICM by salivary α-amylase, artificial gastric juice, pancreas amylase, and small intestinal enzymes were investigated using ICG5, used in Experiment 15. […] In Table 18, the digestion (%) means a value calculated by the formula: Digestion (%)=(The amount of reducing saccharides/The amount of the total saccharides)×100 , in respective reaction described above.
# mice = assay: Acute toxicity test, oral, mice; format: in vivo
# Source text: By using mice, ICG5 used in Experiment 15 was orally administrated to the mice for its acute toxicity test. […] Though not so accurate, the value of LD50 of ICG5 was 5 g/kg-mouse weight or higher.
# [3] = Reducing power by the Somogyi-Nelson method; format: physicochemical
# Source text: It was concluded that Saccharides I and II were substantially non-reducing saccharides.
# [4] = Amino-carbonyl reaction with glycine; format: physicochemical; conditions: 5% (w/v) saccharide + 1% (w/v) glycine, pH 7.0, 120° C., blank subtracted
# Description: ICG5, used in Experiment 15 and commercially available super high-grade glycine were dissolved in deionized water, and then admixed with phosphate buffer to make into an aqueous ICG5 solution containing 5% (w/v) of ICG5 and 1% (w/v) glycine, adjusted to pH 7.0. As a control, an aqueous α-cyclodextrin (α-CD) solution containing α-CD and glycine was prepared in the same manner using α-CD in place of ICG5. Four milliliters each of the solution was put in a glass tube, sealed and then heated at 120° C. for 30, 60, or 90 min. After cooling the solutions in ambient temperature, the degrees of coloring of the solutions were measured to estimate the degree of amino-carbonyl reaction. As a blank test, a solution containing glycine only was heated in the same manner. The degree of coloring was defined as an absorbance at 480 nm using a 1 cm-cell after subtracting the absorbance of the blank test.
# [5] = pH stability of ICM (ICG5 in buffers pH 2 to 10 heated at 100° C. for 24 hours); format: physicochemical; conditions: for Degree of coloring / Purity: 4% (w/v), 100° C. for 24 hours
# Description: as §1
# ICG5, used in Experiment 15, was dissolved in various buffers to make into nine kinds of aqueous solutions containing 4% (w/v) of ICG5, adjusted to pH 2 to 10, as shown in Table 14. Eight milliliters of each solution was put in a glass tube, sealed and then heated at 100° C. for 24 hours. After cooling the solution, the degree of coloring and the purity of ICG5 of each solution were measured in the same manner in Experiment 15.
smiles,measurement,setting,value
"OCC1OC2OC3C(CO)OC(OC4C(CO)OC(OC5C(CO)OC(OCC6OC(OC1C(O)C2O)C(O)C(O)C6O)C(O)C5O)C(O)C4O)C(O)C3O [ICG5, cyclo{→6)-α-D-glucopyranosyl-(1→4)-α-D-glucopyranosyl-(1→4)-α-D-glucopyranosyl-(1→4)-.α-D-glucopyranosyl-(1→4)α-D-glucopyranosyl-(1→}]",Degree of coloring,[1]; heating time 0 min,0.00 A480 nm
same,Degree of coloring,[1]; heating time 30 min,0.02 A480 nm
same,Degree of coloring,[1]; heating time 60 min,0.02 A480 nm
same,Degree of coloring,[1]; heating time 90 min,0.02 A480 nm
same,Degree of coloring,[2]; heating time 0 min,0.00 A480 nm
same,Purity,[2]; heating time 0 min,100%
same,Degree of coloring,[2]; heating time 30 min,0.00 A480 nm
same,Purity,[2]; heating time 30 min,100%
same,Degree of coloring,[2]; heating time 60 min,0.00 A480 nm
same,Purity,[2]; heating time 60 min,100%
same,Degree of coloring,[2]; heating time 90 min,0.01 A480 nm
same,Purity,[2]; heating time 90 min,100%
same,Thermal stability,[2]; aqueous solution heated to 120° C.,stable under the heating condition
same,Digestion,salivary α-amylase,0%
same,Mortality,"mice; oral, highest possible dose",no mouse died
same,LD50,"mice; orally administrated, though not so accurate",≥ 5 g/kg-mouse weight
same,Reducing power,[3],less than the measurable limit
same,Degree of coloring,[4]; heating time 0 min,0.00 A480 nm
same,Degree of coloring,[4]; heating time 30 min,0.00 A480 nm
same,Degree of coloring,[4]; heating time 60 min,0.00 A480 nm
same,Degree of coloring,[4]; heating time 90 min,0.00 A480 nm
same,Hydrolysis,"[5]; pH 2, 100° C. for 24 hours",completely hydrolyzed
same,Degree of coloring,"[5]; pH 2.0, Acetate buffer",0.00 A480 nm
same,Purity,"[5]; pH 2.0, Acetate buffer",0%
same,Hydrolysis,"[5]; pH 3, 100° C. for 24 hours",≥ 50
same,Degree of coloring,"[5]; pH 3.0, Acetate buffer",0.00 A480 nm
same,Purity,"[5]; pH 3.0, Acetate buffer",34.9%
same,Hydrolysis,"[5]; pH 4, 100° C. for 24 hours",slightly hydrolyzed
same,Degree of coloring,"[5]; pH 4.0, Acetate buffer",0.00 A480 nm
same,Purity,"[5]; pH 4.0, Acetate buffer",89.9%
same,Degree of coloring,"[5]; pH 5.0, Acetate buffer",0.00 A480 nm
same,Purity,"[5]; pH 5.0, Acetate buffer",99.4%
same,Degree of coloring,"[5]; pH 6.0, Acetate buffer",0.00 A480 nm
same,Purity,"[5]; pH 6.0, Acetate buffer",100%
same,Degree of coloring,"[5]; pH 7.0, Borate buffer",0.00 A480 nm
same,Purity,"[5]; pH 7.0, Borate buffer",100%
same,Degree of coloring,"[5]; pH 8.0, Ammonium buffer",0.00 A480 nm
same,Purity,"[5]; pH 8.0, Ammonium buffer",100%
same,Degree of coloring,"[5]; pH 9.0, Ammonium buffer",0.01 A480 nm
same,Purity,"[5]; pH 9.0, Ammonium buffer",100%
same,Degree of coloring,"[5]; pH 10.0, Ammonium buffer",0.01 A480 nm
same,Purity,"[5]; pH 10.0, Ammonium buffer",99.6%
same,Hydrolysis,"[5]; pH range of 5 to 10, 100° C. for 24 hours",substantially not hydrolyzed

# — patent US8633005B2, “Isocyclomaltooligosaccharide(s), isocyclomaltooligosaccharide-forming enzyme, their preparation and uses” (Hayashibara Co., Ltd., priority 2004, dated 2014)
